# Assay results taken from ChEMBL document CHEMBL3792384, “Design, synthesis and bioactivity of novel phthalimide derivatives as acetylcholinesterase inhibitors” (Bioorg Med Chem Lett, 2016).
# Active and inactive are the calls of the source. The rule behind the calls is not given here.
# How the values were obtained:
# [1] = target: Acetylcholinesterase (Electrophorus electricus, UniProt O42275); test: Inhibition of electric eel AChE preincubated for 15 mins followed by addition of acetylthiocholine iodide substrate by Ellman's method-based spectrophotometric analysis
# Acetylcholinesterase, sequence (O42275 whole entry): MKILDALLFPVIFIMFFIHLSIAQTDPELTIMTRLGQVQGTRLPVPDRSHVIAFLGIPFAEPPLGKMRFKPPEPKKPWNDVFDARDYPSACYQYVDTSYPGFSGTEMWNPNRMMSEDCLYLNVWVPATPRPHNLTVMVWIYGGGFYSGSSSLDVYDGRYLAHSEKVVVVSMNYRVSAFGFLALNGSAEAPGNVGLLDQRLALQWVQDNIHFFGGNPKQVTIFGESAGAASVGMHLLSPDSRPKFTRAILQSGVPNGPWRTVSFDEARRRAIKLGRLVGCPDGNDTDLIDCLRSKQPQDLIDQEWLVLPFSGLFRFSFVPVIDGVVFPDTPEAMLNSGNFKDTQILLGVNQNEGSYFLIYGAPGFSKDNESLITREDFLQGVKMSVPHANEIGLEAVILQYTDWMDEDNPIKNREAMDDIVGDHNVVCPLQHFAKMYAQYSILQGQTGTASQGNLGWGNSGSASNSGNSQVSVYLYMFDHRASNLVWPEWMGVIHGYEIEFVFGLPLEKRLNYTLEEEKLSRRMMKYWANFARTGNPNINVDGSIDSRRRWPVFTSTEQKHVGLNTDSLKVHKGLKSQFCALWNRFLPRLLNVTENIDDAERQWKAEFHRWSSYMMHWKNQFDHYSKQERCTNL
# [2] = target: Cholinesterase (Equus caballus, UniProt P81908); test: (§1) Inhibition of equine serum BChE using butyrylthiocholine iodide as substrate by Ellman's method-based spectrophotometric analysis
# Cholinesterase, sequence (P81908 whole entry): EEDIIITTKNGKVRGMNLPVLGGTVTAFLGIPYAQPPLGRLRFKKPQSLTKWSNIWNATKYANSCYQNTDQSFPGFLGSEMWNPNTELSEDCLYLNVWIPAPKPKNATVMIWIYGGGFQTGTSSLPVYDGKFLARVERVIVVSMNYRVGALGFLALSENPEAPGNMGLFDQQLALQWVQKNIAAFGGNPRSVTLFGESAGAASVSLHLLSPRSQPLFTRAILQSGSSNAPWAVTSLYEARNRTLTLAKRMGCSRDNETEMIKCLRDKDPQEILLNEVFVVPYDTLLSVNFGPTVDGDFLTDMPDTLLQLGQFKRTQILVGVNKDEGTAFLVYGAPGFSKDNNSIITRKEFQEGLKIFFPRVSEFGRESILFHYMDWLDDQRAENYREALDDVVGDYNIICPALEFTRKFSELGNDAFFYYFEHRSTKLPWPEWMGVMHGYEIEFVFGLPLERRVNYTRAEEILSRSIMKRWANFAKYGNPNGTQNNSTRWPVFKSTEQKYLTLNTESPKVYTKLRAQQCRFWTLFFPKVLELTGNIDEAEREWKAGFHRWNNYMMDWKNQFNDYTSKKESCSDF
# [3] = target: Cholinesterase (Equus caballus) (UniProt P81908); test: as §1
# Cholinesterase (Equus caballus), sequence (P81908 whole entry): as above
SMILES,IC50 [1],IC50 [2],inhibition [3]
COc1ccc(CN2CCN(CCCN3C(=O)c4ccccc4C3=O)CC2)cc1,508 nM,–,–
O=C1c2ccccc2C(=O)N1CCCCCCN1CCN(Cc2ccccc2)CC1,100 nM,–,–
COc1ccc(CN2CCN(CCCCCCCCCN3C(=O)c4ccccc4C3=O)CC2)cc1,657 nM,–,–
O=C1c2ccccc2C(=O)N1CCCCCCCN1CCN(Cc2ccc(Cl)cc2)CC1,655 nM,–,–
COc1ccc(CN2CCN(C/C=C/CN3C(=O)c4ccccc4C3=O)CC2)cc1,489 nM,–,–
O=C1c2ccccc2C(=O)N1CCCCCCCN1CCN(Cc2ccccc2)CC1,53.8 nM,–,–
O=C1c2ccccc2C(=O)N1CCCCCCN1CCN(Cc2ccc(Cl)cc2)CC1,389 nM,–,–
COc1cc2c(cc1OCCCN1CCN(c3ccccc3OC)CC1)C(C)C(C)C(=O)O2 (stereo not drawn),36 nM,–,–
O=C1c2ccccc2C(=O)N1C/C=C/CN1CCN(Cc2ccc(Cl)cc2)CC1,384 nM,–,–
O=C1c2ccccc2C(=O)N1CCCCCCCCCCN1CCN(Cc2ccccc2)CC1,350 nM,–,–
O=C1c2ccccc2C(=O)N1CCCCCCCCCCN1CCN(Cc2ccc(Cl)cc2)CC1,1260 nM,–,–
O=C1c2ccccc2C(=O)N1CCCCCCCCCN1CCN(Cc2ccccc2)CC1,40.7 nM,33.1 nM,–
COc1ccc(CN2CCN(CCCCCN3C(=O)c4ccccc4C3=O)CC2)cc1,548 nM,–,–
O=C1c2ccccc2C(=O)N1CCCCCCCCN1CCN(Cc2ccccc2)CC1,204 nM,–,Active
COc1ccc(CN2CCN(CCCCCCCCCCN3C(=O)c4ccccc4C3=O)CC2)cc1,712 nM,–,–
O=C1c2ccccc2C(=O)N1CCN1CCN(Cc2ccccc2)CC1,91.1 nM,–,–

SMILES,IC50 [1],IC50 [2],inhibition [3]
O=C1c2ccccc2C(=O)N1CCCCN1CCN(Cc2ccccc2)CC1,18.4 nM,–,–
COc1ccc(CN2CCN(CCCCCCCN3C(=O)c4ccccc4C3=O)CC2)cc1,448 nM,–,–
COc1ccc(CN2CCN(CCCCCCCCN3C(=O)c4ccccc4C3=O)CC2)cc1,699 nM,–,–
COc1ccc(CN2CCN(CCCCN3C(=O)c4ccccc4C3=O)CC2)cc1,403 nM,–,–
O=C1c2ccccc2C(=O)N1CCCN1CCN(Cc2ccccc2)CC1,123 nM,–,–
COc1ccc(CN2CCN(CCN3C(=O)c4ccccc4C3=O)CC2)cc1,466 nM,–,–
O=C1c2ccccc2C(=O)N1CCCN1CCN(Cc2ccc(Cl)cc2)CC1,1430 nM,–,–
O=C1c2ccccc2C(=O)N1CCCCN1CCN(Cc2ccc(Cl)cc2)CC1,1420 nM,–,–
O=C1c2ccccc2C(=O)N1CCN1CCN(Cc2ccc(Cl)cc2)CC1,1100 nM,–,–
O=C1c2ccccc2C(=O)N1CCCCCCCCN1CCN(Cc2ccc(Cl)cc2)CC1,440 nM,–,–
O=C1c2ccccc2C(=O)N1CCCCCCCCCN1CCN(Cc2ccc(Cl)cc2)CC1,644 nM,–,–
COc1ccc(CN2CCN(CCCCCCN3C(=O)c4ccccc4C3=O)CC2)cc1,687 nM,–,–
O=C1c2ccccc2C(=O)N1C/C=C/CN1CCN(Cc2ccccc2)CC1,13.6 nM,–,–
O=C1c2ccccc2C(=O)N1CCCCCN1CCN(Cc2ccccc2)CC1,35.4 nM,–,–
O=C1c2ccccc2C(=O)N1CCCCCN1CCN(Cc2ccc(Cl)cc2)CC1,720 nM,–,–
